How the values were obtained:
[1] = molecular target: Histone deacetylase HD1B (Zea mays, UniProt Q9ZTP8); assay: Inhibition of maize histone deacetylase 1B
[2] = Inhibition of maize histone deacetylase 1A; design: species or system Zea mays
[3] = system: Zea mays; assay: Selectivity for IC50 of maize histone deacetylase 1A over IC50 of maize histone deacetylase 1B

Sequence of Histone deacetylase HD1B (Q9ZTP8 whole entry): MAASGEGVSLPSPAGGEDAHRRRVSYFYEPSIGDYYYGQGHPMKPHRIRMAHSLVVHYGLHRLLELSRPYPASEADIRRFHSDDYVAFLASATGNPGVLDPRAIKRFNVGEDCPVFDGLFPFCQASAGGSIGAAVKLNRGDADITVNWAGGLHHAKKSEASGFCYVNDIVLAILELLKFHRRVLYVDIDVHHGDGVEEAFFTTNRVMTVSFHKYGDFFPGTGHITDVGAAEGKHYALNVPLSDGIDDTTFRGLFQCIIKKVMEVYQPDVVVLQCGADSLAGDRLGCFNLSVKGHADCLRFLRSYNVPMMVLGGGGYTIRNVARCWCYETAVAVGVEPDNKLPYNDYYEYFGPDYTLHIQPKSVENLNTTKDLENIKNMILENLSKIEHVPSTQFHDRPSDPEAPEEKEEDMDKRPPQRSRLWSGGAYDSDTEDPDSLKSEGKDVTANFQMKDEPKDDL

SMILES: COc1cccc(C(=O)/C=C/c2cc(/C=C/C(=O)NO)n(C)c2)c1
- IC50 ([1]; read-out: IC50): 0.6 µM
- IC50 [2]: 0.39 µM
- Ratio IC50 [3]: 1.5

SMILES: Cn1cc(/C=C/C(=O)c2cc(F)cc(F)c2)cc1/C=C/C(=O)NO
- IC50 ([1]; read-out: IC50): 23.5 µM
- pIC50 [2]: 5.678
- Ratio IC50 [3]: 11.2

SMILES: Cn1cc(/C=C/C(=O)c2ccccc2Cl)cc1/C=C/C(=O)NO
- IC50 ([1]; read-out: IC50): 1.6 µM
- IC50 [2]: 0.05 µM
- Ratio IC50 [3]: 32

SMILES: Cn1cc(/C=C/C(=O)c2ccc(F)cc2)cc1/C=C/C(=O)NO
- IC50 ([1]; read-out: IC50): 24.9 µM
- IC50 [2]: 15.7 µM
- Ratio IC50 [3]: 1.6

SMILES: Cn1cc(/C=C/C(=O)c2ccc(F)c(F)c2)cc1/C=C/C(=O)NO
- IC50 ([1]; read-out: IC50): 13.5 µM
- IC50 [2]: 2.2 µM
- pIC50 [2]: 5.658
- Ratio IC50 [3]: 6.1

SMILES: COc1ccc(C(=O)/C=C/c2cc(/C=C/C(=O)NO)n(C)c2)cc1
- IC50 ([1]; read-out: IC50): 0.8 µM
- IC50 [2]: 0.79 µM

SMILES: CC/C(=C\c1cc(/C=C/C(=O)NO)n(C)c1)C(=O)c1ccccc1
- IC50 ([1]; read-out: IC50): 4.5 µM
- IC50 [2]: 0.22 µM
- Ratio IC50 [3]: 20.4

SMILES: Cn1cc(/C=C/C(=O)c2cccc3ccccc23)cc1/C=C/C(=O)NO
- IC50 ([1]; read-out: IC50): 0.33 µM
- IC50 [2]: 0.01 µM
- Ratio IC50 [3]: 33

SMILES: Cn1cc(/C=C/C(=O)c2c(F)cccc2F)cc1/C=C/C(=O)NO
- IC50 ([1]; read-out: IC50): 0.807 µM
- IC50 ([1]; read-out: pIC50 (converted)): 17 µM
- IC50 [2]: 0.167 µM
- pIC50 [2]: 5.553
- Ratio IC50 [3]: 4.8

SMILES: C/C(=C\c1cc(/C=C/C(=O)NO)n(C)c1)C(=O)c1ccccc1
- IC50 ([1]; read-out: IC50): 0.57 µM
- IC50 [2]: 0.78 µM

SMILES: Cn1cc(/C=C/C(=O)c2cccc(OC(F)(F)F)c2)cc1/C=C/C(=O)NO
- IC50 ([1]; read-out: IC50): 298 µM
- IC50 [2]: 90 µM
- pIC50 [2]: 4.046
- Ratio IC50 [3]: 3.3

SMILES: Cc1cccc(C(=O)/C=C/c2cc(/C=C/C(=O)NO)n(C)c2)c1
- IC50 ([1]; read-out: IC50): 2.5 µM
- IC50 [2]: 0.17 µM
- Ratio IC50 [3]: 14.7

SMILES: Cn1cc(/C=C/C(=O)c2ccc3c(c2)OCCO3)cc1/C=C/C(=O)NO
- IC50 ([1]; read-out: IC50): 0.621 µM
- IC50 [2]: 0.185 µM
- pIC50 [2]: 6.708
- Ratio IC50 [3]: 3.4

SMILES: Cc1ccccc1C(=O)/C=C/c1cc(/C=C/C(=O)NO)n(C)c1
- IC50 ([1]; read-out: IC50): 0.39 µM
- IC50 [2]: 0.06 µM
- Ratio IC50 [3]: 6.5

SMILES: Cn1cc(/C=C/C(=O)c2cccs2)cc1/C=C/C(=O)NO
- IC50 ([1]; read-out: IC50): 25.8 µM
- IC50 [2]: 16.3 µM
- Ratio IC50 [3]: 1.6

SMILES: Cn1cc(/C=C/C(=O)c2ccsc2)cc1/C=C/C(=O)NO
- IC50 ([1]; read-out: IC50): 22.6 µM
- IC50 [2]: 13.8 µM
- Ratio IC50 [3]: 1.6

SMILES: Cn1cc(/C=C/C(=O)c2ccco2)cc1/C=C/C(=O)NO
- IC50 ([1]; read-out: IC50): 19.7 µM
- IC50 [2]: 1.2 µM
- Ratio IC50 [3]: 16.4

SMILES: Cn1cc(/C=C/C(=O)c2ccc(Cl)cc2Cl)cc1/C=C/C(=O)NO
- IC50 ([1]; read-out: IC50): 17 µM
- IC50 [2]: 2.8 µM
- pIC50 [2]: 5.523
- Ratio IC50 [3]: 6.1

SMILES: Cn1cc(/C=C/C(=O)c2ccccc2)cc1/C=C/C(=O)NO
- IC50 ([1]; read-out: IC50): 0.26 µM
- IC50 [2]: 0.19 µM

SMILES: Cn1cc(/C=C/C(=O)c2ccc3ccccc3c2)cc1/C=C/C(=O)NO
- IC50 ([1]; read-out: IC50): 1.8 µM
- IC50 [2]: 0.04 µM
- Ratio IC50 [3]: 45

SMILES: Cn1cc(/C=C/C(=O)c2ccccc2Br)cc1/C=C/C(=O)NO
- IC50 ([1]; read-out: IC50): 0.18 µM
- IC50 [2]: 0.21 µM

SMILES: Cn1cc(/C=C/C(=O)c2ccc(Cl)c(Cl)c2)cc1/C=C/C(=O)NO
- IC50 ([1]; read-out: IC50): 21.3 µM
- IC50 [2]: 5.9 µM
- pIC50 [2]: 5.229
- Ratio IC50 [3]: 3.6

SMILES: Cn1cc(/C=C/C(=O)c2cccc(Cl)c2Cl)cc1/C=C/C(=O)NO
- IC50 ([1]; read-out: IC50): 17.2 µM
- IC50 [2]: 6.8 µM
- pIC50 [2]: 6.243
- Ratio IC50 [3]: 2.5

SMILES: Cn1cc(/C=C/C(=O)c2ccc(F)c(Cl)c2)cc1/C=C/C(=O)NO
- IC50 ([1]; read-out: IC50): 1.4 µM
- IC50 ([1]; read-out: pIC50 (converted)): 0.621 µM
- IC50 [2]: 0.5 µM
- pIC50 [2]: 6.733
- Ratio IC50 [3]: 2.8

SMILES: Cn1cc(/C=C/C(=O)c2cccc(Cl)c2)cc1/C=C/C(=O)NO
- IC50 ([1]; read-out: IC50): 31.4 µM
- IC50 [2]: 0.44 µM
- Ratio IC50 [3]: 71.4

SMILES: Cn1cc(/C=C/C(=O)c2cccc(C(F)(F)F)c2)cc1/C=C/C(=O)NO
- IC50 ([1]; read-out: IC50): 159 µM
- IC50 [2]: 9.3 µM
- pIC50 [2]: 5.032
- Ratio IC50 [3]: 17.1

SMILES: Cn1cc(/C=C2\CCc3ccccc3C2=O)cc1/C=C/C(=O)NO
- IC50 ([1]; read-out: IC50): 59 µM
- IC50 ([1]; read-out: pIC50 (converted)): 0.807 µM
- IC50 [2]: 3.4 µM
- pIC50 [2]: 6.777
- Ratio IC50 [3]: 17.3

SMILES: Cn1cc(/C=C/C(=O)c2cc(F)ccc2F)cc1/C=C/C(=O)NO
- IC50 ([1]; read-out: IC50): 16.6 µM
- IC50 ([1]; read-out: pIC50 (converted)): 0.8 µM
- IC50 [2]: 0.8 µM
- pIC50 [2]: 6.097
- Ratio IC50 [3]: 20.8

SMILES: Cn1cc(/C=C2\CCCc3ccccc3C2=O)cc1/C=C/C(=O)NO
- IC50 ([1]; read-out: IC50): 0.51 µM
- IC50 ([1]; read-out: pIC50 (converted)): 1.4 µM
- IC50 [2]: 0.196 µM
- pIC50 [2]: 6.301
- Ratio IC50 [3]: 2.6

SMILES: Cn1cc(/C=C/C(=O)c2cccc(Br)c2)cc1/C=C/C(=O)NO
- IC50 ([1]; read-out: IC50): 0.48 µM
- IC50 [2]: 1.6 µM

SMILES: CC(/C=C/C(=O)NO)=C\[C@@H](C)C(=O)c1ccc(N(C)C)cc1 [TRICHOSTATIN]
- IC50 [2]: 0.0008 µM

SMILES: COc1ccccc1C(=O)/C=C/c1cc(/C=C/C(=O)NO)n(C)c1
- IC50 ([1]; read-out: IC50): 0.17 µM
- IC50 [2]: 0.16 µM

SMILES: Cn1cc(/C=C/C(=O)c2cc3ccccc3o2)cc1/C=C/C(=O)NO
- IC50 ([1]; read-out: IC50): 12 µM
- IC50 ([1]; read-out: pIC50 (converted)): 59 µM
- IC50 [2]: 3 µM
- pIC50 [2]: 5.469
- Ratio IC50 [3]: 4

SMILES: Cn1cc(/C=C/C(=O)c2ccc(-c3ccccc3)cc2)cc1/C=C/C(=O)NO
- IC50 ([1]; read-out: IC50): 31.8 µM
- IC50 [2]: 2.2 µM
- Ratio IC50 [3]: 14.4

SMILES: Cn1cc(/C=C/C(=O)c2cccc(F)c2)cc1/C=C/C(=O)NO
- IC50 ([1]; read-out: IC50): 38.8 µM
- IC50 [2]: 0.22 µM
- Ratio IC50 [3]: 176

SMILES: Cn1cc(/C=C/C(=O)c2ccc(Cl)cc2)cc1/C=C/C(=O)NO
- IC50 ([1]; read-out: IC50): 29.4 µM
- IC50 [2]: 18.6 µM

SMILES: Cn1cc(/C=C/C(=O)c2ccc3c(c2)CCO3)cc1/C=C/C(=O)NO
- IC50 ([1]; read-out: IC50): 6.4 µM
- IC50 [2]: 2.1 µM
- Ratio IC50 [3]: 3

SMILES: Cn1cc(/C=C/C(=O)c2ccccc2F)cc1/C=C/C(=O)NO
- IC50 ([1]; read-out: IC50): 3.4 µM
- IC50 [2]: 0.1 µM
- Ratio IC50 [3]: 34

SMILES: Cc1ccc(C(=O)/C=C/c2cc(/C=C/C(=O)NO)n(C)c2)cc1
- IC50 ([1]; read-out: IC50): 4.8 µM
- IC50 [2]: 0.5 µM
- Ratio IC50 [3]: 9.6

SMILES: Cn1cc(/C=C/C(=O)c2ccc(Br)cc2)cc1/C=C/C(=O)NO
- IC50 ([1]; read-out: IC50): 24.3 µM
- IC50 [2]: 20.3 µM
- Ratio IC50 [3]: 1.2
